Data: PubChem BioAssay AID624167 (Sanford-Burnham Center for Chemical Genomics, 2012)
Calls of active or inactive are those of the source.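 How the source made its calls: active means mean IC50 for reducing PEG3 promoter reporter signal at or below a set limit, with IC50 above the limit in both counter screens; inactive means the rest, including counter screen hits.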

Legend:
Assay in all cases: Peg3 promoter luciferase inhibitors, potency, dose response, cell-based, HeLa, CREF/GAPDH counter-screen panel (AID 624167)
PEG-3 [1] = biological target: PEG-3 (UniProt Q6IN02); settings: HeLa PEG-Prom luciferase reporter, overnight, CREF/GAPDH counter-screens, mean of runs
PEG-3 [2] = settings: HeLa PEG-Prom luciferase reporter, overnight, CREF/GAPDH counter-screens
Rat fibroblasts (CREF) = settings: CREF/GAPDH counter-screens
[3] = run 1, dose range 1, individual replicate IC50 per panel
[4] = run 2, dose range 1, individual replicate IC50 per panel

Chain of PEG-3 (UniProt Q6IN02) (Q6IN02 whole entry, looked up): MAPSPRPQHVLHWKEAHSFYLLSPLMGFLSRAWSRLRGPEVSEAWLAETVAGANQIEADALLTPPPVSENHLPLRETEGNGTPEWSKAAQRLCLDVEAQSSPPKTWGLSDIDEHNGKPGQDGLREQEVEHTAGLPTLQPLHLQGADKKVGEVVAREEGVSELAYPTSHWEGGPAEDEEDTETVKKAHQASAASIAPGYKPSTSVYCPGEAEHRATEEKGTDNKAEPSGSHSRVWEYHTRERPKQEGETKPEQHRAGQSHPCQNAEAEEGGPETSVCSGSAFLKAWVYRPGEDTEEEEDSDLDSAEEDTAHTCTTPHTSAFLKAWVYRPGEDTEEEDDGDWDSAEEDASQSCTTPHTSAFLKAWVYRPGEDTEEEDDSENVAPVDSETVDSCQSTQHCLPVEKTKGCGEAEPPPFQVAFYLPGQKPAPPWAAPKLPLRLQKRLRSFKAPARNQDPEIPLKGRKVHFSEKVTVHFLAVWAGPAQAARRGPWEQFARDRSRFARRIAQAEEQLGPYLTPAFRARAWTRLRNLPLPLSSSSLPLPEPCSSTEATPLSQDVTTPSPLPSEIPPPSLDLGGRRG

Row | IC50 (PEG-3 [1]) | SMILES | IC50 (PEG-3 [2]; [3]) | IC50 (PEG-3 [2]; [4]) | IC50 (Rat fibroblasts (CREF); mean of runs) | IC50 (Rat fibroblasts (CREF); [3]) | IC50 (Rat fibroblasts (CREF); [4])
1 | 764 nM | c1cc2c(cc1C1=NNC(=NC3CC3)SC1)OCCO2 | 657 nM | 872 nM | 4720 nM | 1390 nM | 8060 nM
2 | 4030 nM | CCCn1c(C)cc(C(=O)CN2C(=O)c3ccccc3S2(=O)=O)c1C | 3240 nM | 4830 nM | 6190 nM | 6320 nM | 6060 nM
3 | 881 nM | O=C(NCCc1ccccc1F)c1ccc2c(c1)OCCO2 | 1020 nM | 740 nM | 1180 nM | 1070 nM | 1300 nM
4 | inactive | O=c1c2ccccc2sc2ccc(C#CC3(O)CCCCC3)cc12 | 2930 nM | > 100000 nM | 1810 nM | 1360 nM | 2270 nM
5 | 473 nM | COc1ccc(-c2cc3nc(C)n(N)c(=O)c3s2)cc1 | 657 nM | 288 nM | 1090 nM | 1010 nM | 1160 nM
6 | 1410 nM | Cc1nc2cc(-c3ccccc3)sc2c(=O)n1N | 1490 nM | 1340 nM | 3400 nM | 3940 nM | 2870 nM
7 | 1820 nM | CC1CCN(c2ccc(-c3cccs3)nn2)CC1 | 2160 nM | 1480 nM | 341 nM | 316 nM | 366 nM
8 | 624 nM | Cc1ccc2nc(-c3ccc4c(c3)OCCO4)cn2c1 | 840 nM | 409 nM | 731 nM | 691 nM | 771 nM
9 | 499 nM | Cc1ccc(C(=O)Nc2cnc3ccccc3c2)cc1 | 416 nM | 582 nM | 3890 nM | 3520 nM | 4260 nM
10 | 6630 nM | Cc1ccc(C(=O)O/N=C(\N)c2ccccn2)cc1 | 10300 nM | 2960 nM | 1570 nM | 1630 nM | 1500 nM
11 | 4130 nM | Cc1nc(SCC(=O)Nc2nc3ccccc3s2)c(C#N)c(C)c1C | 8050 nM | < 200 nM | 7900 nM | 232 nM | 15600 nM
12 | 573 nM | O=C(CN1C(=O)c2ccccc2S1(=O)=O)c1ccc2c(c1)OCCO2 | 730 nM | 415 nM | 1610 nM | 1280 nM | 1940 nM
13 | 3360 nM | Cc1cc(C(=O)CN2C(=O)c3ccccc3S2(=O)=O)c(C)n1-c1ccccc1 | 2980 nM | 3750 nM | 7330 nM | 6790 nM | 7880 nM
14 | 2580 nM | CN(C)c1ccc(NC(=S)c2ccccn2)cc1 | 2190 nM | 2970 nM | 1200 nM | 1250 nM | 1150 nM
15 | 1980 nM | O=C(Nc1nc2cc3c(cc2s1)OCCO3)c1ccco1 | 1750 nM | 2220 nM | 1480 nM | 766 nM | 2200 nM
16 | 10700 nM | COc1cc(NS(C)(=O)=O)ccc1Nc1c2ccccc2nc2ccccc12 | 11000 nM | 10400 nM | 4970 nM | 8610 nM | 1330 nM
17 | 378 nM | OCC1OC(n2ccc3c(NO)ncnc32)C(O)C1O (stereo not given) | 433 nM | 323 nM | 3210 nM | 2780 nM | 3640 nM
18 | inactive | COc1cc(SC)ccc1C(=O)Nc1nc2ccccc2[nH]1 | 377 nM | > 100000 nM | 296 nM | 305 nM | 288 nM
19 | 930 nM | O=C(COc1ccc(Cl)cc1Cl)Nc1ccccn1 | 1270 nM | 594 nM | 904 nM | 795 nM | 1010 nM
20 | 6100 nM | Cc1ccc2nc(-c3ccc(Br)cc3)cn2c1 | 3130 nM | 9070 nM | 7810 nM | 2920 nM | 12700 nM
